Like-named read-outs stand apart in the source and are kept apart here. Blank lines part the entries; values can stand above or below the compound they belong to.
System: cultured human mast cells (CHMC)
Test: CHMC low cell density IgE activation: tryptase assay
Type: cell-based
Conditions: IgE activation
Summary of the method: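 Fluorogenic readout of tryptase released into the supernatant (30 min substrate incubation, room temperature) measures degranulation. Cells were plated at low density (1000–1500/well, varied by donor) and triggered with anti-IgE for 30 min at 37 °C.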

[1] = Homo sapiens, Mast cell, low cell density CHMC, tryptase, 3 pt, read-out: LD Tryptase, CHMC, IgE, 3 pt
[2] = Homo sapiens, Mast cell, low cell density CHMC, tryptase, 8 pt, read-out: LD Tryptase, CHMC, IgE, 8 pt
[3] = low cell density CHMC, tryptase, 3 pt, read-out: LD Tryptase, CHMC, IgE, 3 pt
[4] = low cell density CHMC, tryptase, 8 pt, read-out: LD Tryptase, CHMC, IgE, 8 pt
[5] = low cell density CHMC, tryptase release, 8 pt, read-out: LD Tryptase, CHMC, IgE, 8 pt

Compound: Cc1cc(N2CCN(C)CC2)ncc1Nc1ncc(F)c(NC2CCCCC2)n1 [Compound 1247]
- IC50 [1]: < 10 µM

Compound: Cc1cc(N2CCN(C)CC2)ncc1Nc1ncc(F)c(NC(C)C)n1 [Compound 1248]
- IC50 [1]: > 10 µM

Compound: Cc1cc(N2CCN(C)CC2)ncc1Nc1ncc(F)c(NC2CC(C)(C)N(C)C(C)(C)C2)n1 [Compound 1249]
- IC50 [1]: > 10 µM

Compound: Cc1cc(Nc2ncc(F)c(NC3(CO)CCCC3)n2)ccc1N1CCN(C)CC1 [Compound 1250]
- IC50 [1]: < 10 µM

Compound: Cc1cc(C)cc(Nc2ncc(F)c(Nc3nc(N)n[nH]3)n2)c1 [Compound 1252]
- IC50 [2]: > 10 µM

Compound: COc1ccc(Nc2ncc(F)c(Nc3n[nH]c(N)n3)n2)cc1Cl [Compound 1253]
- IC50 [2]: > 10 µM

Compound: Nc1nc(Nc2nc(Nc3ccc(Cl)c(Cl)c3)ncc2F)n[nH]1 [Compound 1254]
- IC50 [2]: > 10 µM

Compound: Cc1cc(C)cc(Nc2ncc(F)c(NCC3COc4ccccc4O3)n2)c1 (stereo not shown) [Compound 1256, N4-[ (2,3-Dihydro-1,4-benzodioxan-2-yl)methyl]-N2-(3,5-dimethylphenyl)-5-fluoro-2,4-pyrimidinediamine]
- IC50 [3]: < 10 µM

Compound: CNC(=O)COc1cccc(Nc2ncc(F)c(NCC3COc4ccccc4O3)n2)c1 (stereo not shown) [Compound 1257, N4-[ (2,3-Dihydro-1,4-benzodioxan-2-yl)methyl]-5-fluoro-N2-[3-(N-methylamino)carbonylmethyleneoxyphenyl]-2,4-pyrimidinediamine]
- IC50 [4]: < 10 µM

Compound: COc1cc(Nc2ncc(F)c(NCC3COc4ccccc4O3)n2)cc(OC)c1 (stereo not shown) [Compound 1258, N4-[ (2,3-Dihydro-1,4-benzodioxan-2-yl)methyl]-N2-(3,5-dimethoxyphenyl)-5-fluoro-2,4-pyrimidinediamine]
- IC50 [3]: < 10 µM

Compound: COc1ccc(Nc2ncc(F)c(NCC3COc4ccccc4O3)n2)cc1Cl (stereo not shown) [Compound 1259, N2-(3-Chloro-4-methoxyphenyl)-N4-[ (2,3-dihydro-1,4-benzodioxan-2-yl)methyl]-5-fluoro-2,4-pyrimidinediamine]
- IC50 [3]: < 10 µM

Compound: Fc1cnc(Nc2ccc3cn[nH]c3c2)nc1NCC1COc2ccccc2O1 (stereo not shown) [Compound 1260, N4-[ (2,3-Dihydro-1,4-benzodioxan-2-yl)methyl]-5-fluoro-N2-(indazol-6-yl)-2,4-pyrimidinediamine]
- IC50 [4]: < 10 µM

Compound: COC(=O)c1ccc(Nc2ncc(F)c(Nc3ccc(Cl)c(Cl)c3)n2)cc1 [Compound 1261]
- IC50 [1]: > 10 µM

Compound: COC(=O)c1ccc(Nc2ncc(F)c(Nc3ccc4c(c3)NC(=O)[C@H](C)O4)n2)cc1 [Compound 1263]
- IC50 [2]: < 10 µM

Compound: C[C@H]1Oc2ccc(Nc3nc(Nc4ccc(C(N)=O)cc4)ncc3F)cc2NC1=O [Compound 1265]
- IC50 [2]: < 10 µM

Compound: COC(=O)c1ccc(Nc2ncc(F)c(Nc3ccc4c(c3)NC(=O)[C@@H](C)O4)n2)cc1 [Compound 1266]
- IC50 [2]: < 10 µM

Compound: C[C@H]1Oc2ccc(Nc3nc(Nc4cccc(CN)c4)ncc3F)cc2NC1=O [Compound 1280]
- IC50 [3]: < 10 µM
- IC50 [4]: < 10 µM

Compound: COC(=O)CCNC(=O)c1ccc(Nc2ncc(F)c(Nc3ccc4c(n3)NC(=O)C(C)(C)O4)n2)cc1 [Compound 1312, N4-(2,2-Dimethyl-3-oxo-4H-5-pyrid[1,4]oxazin-6-yl)-5-fluoro-N2-[4-[N-(2-methoxycarbonylethyl)aminocarbonyl]phenyl]-2,4-pyrimidinediamine]
- IC50 [1]: < 10 µM

Compound: (R)-N2- (3-Chloro-4-methoxyphenyl)-5-fluoro-N4- (2-methyl-3-oxo-2H,4H-benz[1,4]oxazin-6-yl)-2,4-pyrimidinediamine (1R)-(−)-Camphorsulfonic Acid Salt [Compound 212]
- IC50 (low cell density CHMC, tryptase release, 3 pt, read-out: LD Tryptase, CHMC, IgE, 3 pt): < 10 µM
- IC50 [5]: < 10 µM

Compound: (R)-N2- (3-Chloro-4-methoxyphenyl)-5-fluoro-N4- (2-methyl-3-oxo-2H,4H-benz[1,4]oxazin-6-yl)-2,4-pyrimidinediamine (1S)-(+)-Camphorsulfonic Acid Salt [Compound 209]
- IC50 [5]: < 10 µM

Compound: (R)-N2-[3- (N-tert-Butoxycarbonylamino)methylenephenyl]-5-fluoro-N4- (2-methyl-3-oxo-2H,4H-benz[1,4]oxazin-6-yl) [Compound 1277]
- IC50 [3]: < 10 µM
- IC50 [4]: < 10 µM

Compound: (R,S)-N2- (3,5-Dimethylphenyl)-5-fluoro-N4-(tetrahydrofurano[2,3]-2H-benz[1,4]oxazin-6-yl)-2,4-pyrimidinediamine [Compound 252]
- IC50 [5]: < 10 µM

Compound: (S)-5-Fluoro-[1- (2-hydroxymethyl)-2-trifluoromethylbenzimidazol-5-yl]-N4- (2-methyl-3-oxo-2H,4H-benz[1,4]oxazin-6-yl)-2,4-pyrimidinediamine [Compound 923]
- IC50 (low cell density, 8 pt, read-out: LD Tryptase, CHMC, IgE, 8 pt): < 10 µM

Compound: (S)-N2-[3- (N-tert-Butoxycarbonylamino)methylenephenyl]-5-fluoro-N4- (2-methyl-3-oxo-2H,4H-benz[1,4]oxazin-6-yl)-2,4-pyrimidinediamine [Compound 1276]
- IC50 [3]: < 10 µM
- IC50 [4]: < 10 µM

Compound: N2- (2,2-Dimethyl-3-oxo-4H-benz[1,4]oxazin-6-yl)-5-fluoro-N4-(4-[N-[methoxycarbonylmethylene]aminocarbonyl]phenyl)-2,4-pyrimidinediamine [Compound 1331]
- IC50 [3]: < 10 µM
- IC50 [4]: < 10 µM

Compound: N2- (2-Aminocarbonylphenyl)-N4- (2,2-dimethyl-3-oxo-4H-5-pyrid[1,4]oxazin-6-yl)-5-fluoro-2,4-pyrimidinediamine [Compound 1316]
- IC50 [3]: < 10 µM
- IC50 [4]: > 10 µM

Compound: N2- (3-Chloro-4-hydroxy-5-methylphenyl)-N4-[3,4-(difluoromethylenedioxy)phenyl]-5-fluoro-2,4-pyrimidinediamine [Compound 567]
- IC50 (low cell density CHMC, tryptase release, 8 point, read-out: LD Tryptase, CHMC, IgE, 8 pt): < 10 µM

Compound: N2- (4-Aminocarbonylphenyl)-N4- (2,2-dimethyl-3-oxo-4H-5-pyrid[1,4]oxazin-6-yl)-5-fluoro-2,4-pyrimidinediamine [Compound 1315]
- IC50 [3]: < 10 µM

Next, values leading:

- IC50 [2]: < 10 µM
Compound: COC(=O)c1ccc(Nc2ncc(F)c(Nc3ccc(OC)c(Cl)c3)n2)cc1 [Compound 1322]

- IC50 [4]: < 10 µM
Compound: CNC(=O)CNC(=O)c1ccc(Nc2ncc(F)c(Nc3ccc(OC)c(Cl)c3)n2)cc1 [Compound 1325]

- IC50 [2]: > 10 µM
Compound: NC(=O)c1ccc(Nc2nc(Cl)ncc2F)cc1 [Compound 1327]

- IC50 [1]: < 10 µM
- IC50 [2]: < 10 µM
Compound: NC(=O)c1ccc(Nc2nc(Nc3cccc(O)c3)ncc2F)cc1 [Compound 1334]

- IC50 [1]: < 10 µM
- IC50 [2]: < 10 µM
Compound: NC(=O)c1ccc(Nc2nc(Nc3cc(Cl)c(O)c(Cl)c3)ncc2F)cc1 [Compound 1335]

- IC50 [1]: < 10 µM
- IC50 [2]: < 10 µM
Compound: COc1ccc(Nc2ncc(F)c(Nc3ccc(C(N)=O)cc3)n2)cc1Cl [Compound 1336]

- IC50 [1]: > 10 µM
- IC50 [2]: > 10 µM
Compound: NC(=O)c1ccc(Nc2ncc(F)c(Nc3ccc(C(N)=O)cc3)n2)cc1 [Compound 1339]

- IC50 [3]: < 10 µM
- IC50 [4]: < 10 µM
Compound: COC(=O)CNC(=O)c1ccc(Nc2ncc(F)c(Nc3ccc(OCc4nc(C)no4)cc3)n2)cc1 [Compound 1342, 5-Fluoro-N2-(4-[N-[methoxycarbonylmethylene]aminocarbonyl]phenyl)-N4-(4-[3-methyl-1,2,4-oxadiazol-5-yl]methyleneoxyphenyl)-2,4-pyrimidinediamine]

- IC50 [1]: < 10 µM
Compound: CN(c1ccc(Cl)c(Cl)c1)c1nc(Nc2ccc(C(N)=O)cc2)ncc1F [Compound 1346]

- IC50 [3]: < 10 µM
Compound: CCN(CC)CCNC(=O)c1ccc(Nc2ncc(F)c(N(C)c3ccc(Cl)c(Cl)c3)n2)cc1 [Compound 1347, N2-(4-[2-[N,N-Diethylamino]ethyleneaminocarbonyl]phenyl)-N4-(3,4-dichlorophenyl)-5-fluoro-N4-methyl-2,4-pyrimidinediamine]

- IC50 [1]: > 10 µM
Compound: NC(=O)c1ccc(Nc2ncc(F)c(NC3CCCC3)n2)cc1 [Compound 1349]

- IC50 [3]: > 10 µM
- IC50 [4]: < 10 µM
Compound: CCN(CC)CCNC(=O)c1ccc(Nc2ncc(F)c(NC3CCCC3)n2)cc1 [Compound 1350, N4-(Cyclopentyl)-N2-(4-[2-(N,N-diethylamino]ethyleneaminocarbonyl)phenyl)-5-fluoro-2,4-pyrimidinediamine]

- IC50 [1]: < 10 µM
Compound: COc1cc(Nc2nc(Nc3ccc(C(N)=O)cc3)ncc2F)ccc1Cl [Compound 1352]

- IC50 [1]: < 10 µM
- IC50 [2]: < 10 µM
Compound: COc1ccc(Nc2nc(Nc3ccc(C(N)=O)c(Cl)c3)ncc2F)cc1Cl [Compound 1353]

- IC50 [1]: < 10 µM
- IC50 [2]: < 10 µM
Compound: COc1cc(Nc2nc(Nc3ccc(C(N)=O)c(Cl)c3)ncc2F)ccc1Cl [Compound 1354]

- IC50 [3]: < 10 µM
- IC50 [4]: < 10 µM
Compound: CCN(CC)CCNC(=O)c1ccc(Nc2ncc(F)c(Nc3ccc(Cl)c(OC)c3)n2)cc1 [Compound 1355, N4-(4-Chloro-3-methoxyphenyl)-N2-(4-[2-[N,N-diethylamino]ethyleneaminocarbonyl]phenyl)-5-fluoro-2,4-pyrimidinediamine]

- IC50 [1]: < 10 µM
- IC50 [2]: < 10 µM
Compound: NC(=O)c1ccc(Nc2ncc(F)c(Nc3ccccc3)n2)cc1 [Compound 1357, N2-(4-Aminocarbonylphenyl)-5-fluoro-N4-phenyl-2,4-pyrimidinediamine]

- IC50 [4]: < 10 µM
Compound: N2- (3,5-Dichloro-4-hydroxyphenyl)-5-fluoro-N4- (4-[N-[methoxycarbonylmethylene]aminocarbonyl]phenyl)-2,4-pyrimidinediamine [Compound 1329]

- IC50 [3]: > 10 µM
- IC50 [4]: > 10 µM
Compound: N2- (4-Aminocarbonylphenyl)-5-fluoro-N4- (4-[N-[methoxycarbonylmethylene]aminocarbonyl]phenyl)-2,4-pyrimidinediamine [Compound 1333]
